{"source": "ChEMBL document CHEMBL1201862", "about": "“PubChem BioAssay data set” (2004)", "key": {"[1]": {"biological_target": "T1, Short transient receptor potential channel 4 (Mus musculus, UniProt Q9QUQ5)", "T1 sequence (Q9QUQ5 whole entry)": "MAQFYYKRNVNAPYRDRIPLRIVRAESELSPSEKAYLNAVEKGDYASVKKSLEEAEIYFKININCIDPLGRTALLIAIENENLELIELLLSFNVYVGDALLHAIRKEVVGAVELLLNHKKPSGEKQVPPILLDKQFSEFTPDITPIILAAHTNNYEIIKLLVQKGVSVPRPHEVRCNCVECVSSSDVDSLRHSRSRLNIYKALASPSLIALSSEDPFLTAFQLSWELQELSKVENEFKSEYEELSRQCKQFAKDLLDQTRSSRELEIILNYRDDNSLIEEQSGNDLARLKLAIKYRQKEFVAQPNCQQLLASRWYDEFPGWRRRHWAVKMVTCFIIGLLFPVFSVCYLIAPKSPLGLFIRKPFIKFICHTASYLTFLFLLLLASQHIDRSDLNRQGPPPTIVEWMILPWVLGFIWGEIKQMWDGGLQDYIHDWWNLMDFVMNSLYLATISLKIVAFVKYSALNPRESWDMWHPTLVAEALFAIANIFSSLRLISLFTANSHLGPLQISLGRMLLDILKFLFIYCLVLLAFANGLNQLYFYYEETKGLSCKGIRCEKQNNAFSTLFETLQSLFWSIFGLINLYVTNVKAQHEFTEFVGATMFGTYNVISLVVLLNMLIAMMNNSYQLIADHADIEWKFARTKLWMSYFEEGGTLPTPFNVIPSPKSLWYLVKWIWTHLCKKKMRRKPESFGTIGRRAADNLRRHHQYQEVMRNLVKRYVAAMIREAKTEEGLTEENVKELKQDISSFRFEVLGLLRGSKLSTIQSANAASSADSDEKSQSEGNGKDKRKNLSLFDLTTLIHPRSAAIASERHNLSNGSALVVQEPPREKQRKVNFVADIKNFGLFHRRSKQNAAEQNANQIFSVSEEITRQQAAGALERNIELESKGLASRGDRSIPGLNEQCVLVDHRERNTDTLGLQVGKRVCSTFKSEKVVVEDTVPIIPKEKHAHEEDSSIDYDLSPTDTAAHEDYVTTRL", "experiment": "block of DAMGO-driven TRPC4 calcium entry – cell-based, HEK293 TRPC4/mu-opioid, Fluo-4 calcium, dose response (AID 434942)", "type": "functional"}, "[2]": {"biological_target": "Tumor necrosis factor (Homo sapiens, UniProt P01375)", "sequence (P01375 whole entry)": "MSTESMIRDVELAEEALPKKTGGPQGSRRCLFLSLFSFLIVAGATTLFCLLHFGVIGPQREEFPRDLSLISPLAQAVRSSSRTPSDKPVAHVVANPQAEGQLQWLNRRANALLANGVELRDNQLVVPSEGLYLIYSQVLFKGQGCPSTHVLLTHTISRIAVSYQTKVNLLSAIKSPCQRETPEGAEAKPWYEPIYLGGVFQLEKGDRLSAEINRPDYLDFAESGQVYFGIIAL", "experiment": "analog potency on TNFa NF-kB signaling – cell-based, revised, SAR follow-up (AID 2337)", "type": "functional"}, "[3]": {"biological_target": "T2, Nucleotide-binding oligomerization domain-containing protein 1 (Homo sapiens, UniProt Q9Y239)", "T2 sequence (Q9Y239 whole entry)": "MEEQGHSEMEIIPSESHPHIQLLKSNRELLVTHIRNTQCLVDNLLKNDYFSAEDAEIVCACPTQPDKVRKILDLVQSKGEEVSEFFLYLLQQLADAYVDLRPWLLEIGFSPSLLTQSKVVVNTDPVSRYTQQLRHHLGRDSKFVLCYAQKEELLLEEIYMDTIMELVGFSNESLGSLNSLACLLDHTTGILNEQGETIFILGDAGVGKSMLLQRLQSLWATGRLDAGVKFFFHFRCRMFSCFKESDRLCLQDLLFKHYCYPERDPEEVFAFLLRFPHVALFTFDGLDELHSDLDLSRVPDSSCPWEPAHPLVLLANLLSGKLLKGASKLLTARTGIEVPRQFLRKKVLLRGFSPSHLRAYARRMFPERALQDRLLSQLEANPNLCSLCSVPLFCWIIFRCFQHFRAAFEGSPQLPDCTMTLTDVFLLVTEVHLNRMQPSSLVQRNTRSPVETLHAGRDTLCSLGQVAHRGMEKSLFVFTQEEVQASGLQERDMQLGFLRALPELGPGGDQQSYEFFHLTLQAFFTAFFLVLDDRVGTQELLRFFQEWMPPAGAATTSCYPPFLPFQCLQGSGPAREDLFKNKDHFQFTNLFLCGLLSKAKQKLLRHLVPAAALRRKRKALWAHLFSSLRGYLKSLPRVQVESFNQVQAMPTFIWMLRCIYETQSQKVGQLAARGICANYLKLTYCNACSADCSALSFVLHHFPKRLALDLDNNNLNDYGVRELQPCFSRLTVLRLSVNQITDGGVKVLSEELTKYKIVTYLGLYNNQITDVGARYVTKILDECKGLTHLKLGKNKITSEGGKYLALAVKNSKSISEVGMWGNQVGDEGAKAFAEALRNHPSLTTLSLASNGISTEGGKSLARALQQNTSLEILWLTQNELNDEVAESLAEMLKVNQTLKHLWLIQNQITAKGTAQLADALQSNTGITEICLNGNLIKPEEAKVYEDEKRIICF", "experiment": "blockers of NOD1 pathway activity – revised, SAR follow-up (AID 2333)", "type": "functional"}, "[4]": {"system": "HEK293", "experiment": "cells", "settings": "Homo sapiens"}, "[5]": {"experiment": "HEK-293T viability loss after treatment – luminescence, T-cell screen hits, cytotoxicity control for TCR NF-kB inhibitor project, dose response (AID 489026);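 note: cells exposed to compound about 14 hours before the viability readout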", "type": "functional, cell-based"}, "[6]": {"biological_target": "T3, Microphthalmia-associated transcription factor (Homo sapiens, UniProt O75030)", "T3 sequence (O75030 whole entry)": "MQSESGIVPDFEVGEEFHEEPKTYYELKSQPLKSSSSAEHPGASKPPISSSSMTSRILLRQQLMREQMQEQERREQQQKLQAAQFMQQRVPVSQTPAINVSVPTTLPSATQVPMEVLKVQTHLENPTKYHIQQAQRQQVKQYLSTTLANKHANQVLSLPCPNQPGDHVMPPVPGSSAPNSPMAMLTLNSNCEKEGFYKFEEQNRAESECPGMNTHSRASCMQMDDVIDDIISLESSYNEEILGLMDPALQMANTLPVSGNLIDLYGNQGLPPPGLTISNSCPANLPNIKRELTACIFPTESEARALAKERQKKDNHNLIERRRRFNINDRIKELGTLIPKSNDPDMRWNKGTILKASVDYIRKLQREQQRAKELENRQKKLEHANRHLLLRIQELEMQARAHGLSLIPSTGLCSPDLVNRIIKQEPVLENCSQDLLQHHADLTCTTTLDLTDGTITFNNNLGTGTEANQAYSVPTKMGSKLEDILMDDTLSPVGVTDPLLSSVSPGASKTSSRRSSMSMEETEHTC", "experiment": "reducers of TRPM1 reporter luminescence, concentration series – cell-based, SK-MEL-5, cherry-picked, set 3, MITF inhibitor project, dose response (AID 493073);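 note: SK-MEL-5 melanoma cells with luciferase driven by the MITF target TRPM1 promoter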", "type": "functional"}, "[7]": {"biological_target": "Cytochrome P450 2D6 (Homo sapiens, UniProt P10635)", "sequence (P10635 whole entry)": "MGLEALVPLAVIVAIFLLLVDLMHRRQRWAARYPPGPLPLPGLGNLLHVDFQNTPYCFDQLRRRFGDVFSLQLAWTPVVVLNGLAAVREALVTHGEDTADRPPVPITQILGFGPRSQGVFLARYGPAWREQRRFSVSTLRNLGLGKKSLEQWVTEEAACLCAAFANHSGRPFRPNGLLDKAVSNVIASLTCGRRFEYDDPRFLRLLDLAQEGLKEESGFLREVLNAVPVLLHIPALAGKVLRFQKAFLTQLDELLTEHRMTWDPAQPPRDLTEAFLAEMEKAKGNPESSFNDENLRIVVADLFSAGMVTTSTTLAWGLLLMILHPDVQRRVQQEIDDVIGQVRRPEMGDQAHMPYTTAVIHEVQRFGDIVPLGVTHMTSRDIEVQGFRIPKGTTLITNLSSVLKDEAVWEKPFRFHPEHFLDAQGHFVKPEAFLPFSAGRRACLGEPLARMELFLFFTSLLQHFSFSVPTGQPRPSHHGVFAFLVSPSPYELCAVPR"}, "[8]": {"biological_target": "Cytochrome P450 2C19 (Homo sapiens, UniProt P33261)", "sequence (P33261 whole entry)": "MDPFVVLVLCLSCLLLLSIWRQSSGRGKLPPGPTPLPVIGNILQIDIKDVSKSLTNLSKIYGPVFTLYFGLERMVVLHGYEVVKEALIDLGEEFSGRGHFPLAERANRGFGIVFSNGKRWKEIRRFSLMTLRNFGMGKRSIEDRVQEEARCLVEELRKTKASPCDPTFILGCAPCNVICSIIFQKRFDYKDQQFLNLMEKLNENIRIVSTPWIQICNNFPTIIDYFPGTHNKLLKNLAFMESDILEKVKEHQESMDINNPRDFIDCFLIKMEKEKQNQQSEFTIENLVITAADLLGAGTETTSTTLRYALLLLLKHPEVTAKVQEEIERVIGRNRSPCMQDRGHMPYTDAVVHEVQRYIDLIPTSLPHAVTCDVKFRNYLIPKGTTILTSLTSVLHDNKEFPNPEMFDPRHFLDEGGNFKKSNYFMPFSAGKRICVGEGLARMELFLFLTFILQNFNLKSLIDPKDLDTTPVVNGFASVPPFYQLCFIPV", "experiment": "Cytochrome panel assay with activity outcomes. Panel member name: p450-cyp2c19 Compounds with AC50 equal or less than 10 uM are considered active", "type": "functional", "settings": "read-out: AC50"}, "[9]": {"biological_target": "Cytochrome P450 2C9 (Homo sapiens, UniProt P11712)", "sequence (P11712 whole entry)": "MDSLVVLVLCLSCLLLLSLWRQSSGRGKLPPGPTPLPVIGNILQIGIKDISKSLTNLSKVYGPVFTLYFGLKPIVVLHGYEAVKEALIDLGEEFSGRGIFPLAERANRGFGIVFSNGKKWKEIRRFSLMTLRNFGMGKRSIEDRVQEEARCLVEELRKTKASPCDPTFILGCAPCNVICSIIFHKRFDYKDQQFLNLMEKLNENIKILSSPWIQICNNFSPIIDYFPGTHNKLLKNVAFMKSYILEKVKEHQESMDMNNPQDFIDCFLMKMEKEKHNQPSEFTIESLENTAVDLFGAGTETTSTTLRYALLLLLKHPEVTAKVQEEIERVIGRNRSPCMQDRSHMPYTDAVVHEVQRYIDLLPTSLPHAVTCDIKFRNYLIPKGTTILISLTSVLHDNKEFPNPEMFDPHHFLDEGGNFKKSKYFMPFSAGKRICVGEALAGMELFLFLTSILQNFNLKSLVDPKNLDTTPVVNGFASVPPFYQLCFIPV"}, "[10]": {"experiment": "NIH-3T3 fibroblast cytotoxicity, dose response, cytotoxicity control, cell-based, fluorescence, Alamar Blue, secondary assay (AID 2327);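 note: NIH-3T3 mouse fibroblasts cultured with fluconazole at 8 µg/mL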", "type": "functional"}, "[11]": {"system": "Streptococcus sp. 'group A'", "experiment": "Streptococcus pyogenes SK(-)GAS viability under kanamycin – luminescence, BacTiterGlo, confirmation, counter-screen for streptokinase expression inhibitor project, dose response (AID 1900)", "type": "functional, organism-based"}, "[12]": {"experiment": "fluconazole-exposed Candida albicans growth modulators – fluorescence, retest, confirmation (AID 2467)", "type": "functional, cell-based"}, "[13]": {"experiment": "Trypanosoma cruzi growth suppression in host cells – NIH3T3 host cells, beta-gal luminescence, confirmation (AID 2044);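 note: intracellular parasites grown in NIH/3T3 mouse fibroblasts as host cells; luminescent beta-galactosidase reporter signal from transgenic T. cruzi replicating inside host cells; inhibitors lower the luminescence signal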", "type": "functional, cell-based"}, "[14]": {"experiment": "NIH3T3 cell viability loss – ATP luminescence, mouse fibroblasts, counter-screen, dose response (AID 2010);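 note: cells exposed to compound for about 90 hours before reading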", "type": "functional, cell-based"}, "[15]": {"system": "Streptococcus", "experiment": "GAS UMAA2166 growth inhibition – luminescence, BacTiterGlo, counter-screen for streptokinase expression inhibitor project, dose response (AID 1915);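 note: potency for reduction of bacterial viability or growth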", "type": "functional, organism-based"}, "[16]": {"experiment": "THP-1 cell cytotoxicity, dose response, cytotoxicity control for non-replicating M. tuberculosis project (AID 489025)", "type": "functional"}, "[17]": {"biological_target": "T1, Short transient receptor potential channel 4", "experiment": "calcium entry via TRPC4 opening agents – cell-based, HEK293 TRPC4/mu-opioid, Fluo-4 calcium, dose response (AID 434937)", "type": "functional"}, "[18]": {"experiment": "cells", "type": "functional"}, "[19]": {"biological_target": "Induced myeloid leukemia cell differentiation protein Mcl-1 (Homo sapiens, UniProt Q07820)", "sequence (Q07820 whole entry)": "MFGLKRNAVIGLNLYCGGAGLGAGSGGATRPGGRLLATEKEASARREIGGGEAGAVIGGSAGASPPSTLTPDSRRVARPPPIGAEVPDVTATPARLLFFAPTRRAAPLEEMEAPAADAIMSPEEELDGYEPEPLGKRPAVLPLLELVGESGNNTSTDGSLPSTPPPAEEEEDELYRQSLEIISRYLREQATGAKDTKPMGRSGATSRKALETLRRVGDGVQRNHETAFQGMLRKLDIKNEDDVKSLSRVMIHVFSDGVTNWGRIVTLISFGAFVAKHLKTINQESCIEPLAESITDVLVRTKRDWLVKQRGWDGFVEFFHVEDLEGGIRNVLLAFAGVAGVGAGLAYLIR", "type": "functional"}, "[20]": {"biological_target": "DNA dC->dU-editing enzyme APOBEC-3G (Homo sapiens, UniProt Q9HC16)", "sequence (Q9HC16 whole entry)": "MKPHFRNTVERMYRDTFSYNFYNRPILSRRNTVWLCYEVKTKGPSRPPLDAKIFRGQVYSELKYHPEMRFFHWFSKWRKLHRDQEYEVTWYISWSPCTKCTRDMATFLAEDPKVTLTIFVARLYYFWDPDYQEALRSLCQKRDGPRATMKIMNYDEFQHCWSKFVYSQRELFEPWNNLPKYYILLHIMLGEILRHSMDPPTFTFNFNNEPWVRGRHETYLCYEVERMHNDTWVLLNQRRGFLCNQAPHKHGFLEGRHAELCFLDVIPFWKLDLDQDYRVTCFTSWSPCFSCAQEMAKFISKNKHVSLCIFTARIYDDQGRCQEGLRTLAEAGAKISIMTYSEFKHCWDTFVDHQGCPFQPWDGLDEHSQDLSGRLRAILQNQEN", "experiment": "Dose Response confirmation of small molecule APOBEC3G DNA Deaminase Inhibitors via a fluorescence-based single-stranded DNA deaminase assay. [Related pubchem assays (depositor defined):AID493012, AID493028]", "type": "functional"}}, "note": "Activity calls are given as the source filed them."}
{"smiles": "O=C(c1cccc(C(F)(F)F)c1)C1CCCN(Cc2cccn2-c2ccccn2)C1", "note": "(stereo not given)", "values": [{"measurement": "EC50", "setting": "[1]", "result": "5.96 µM (active)"}]}
{"smiles": "CCn1nc(C)cc1C(=O)NC1CCCc2c1cnn2-c1ccc(C)c(C)c1", "note": "(stereo not given)", "values": [{"measurement": "IC50", "setting": "[2]", "result": "4.43 µM (active)"}, {"measurement": "IC50", "setting": "[3]", "result": "4.76 µM (active)"}, {"measurement": "IC50", "setting": "[4]", "result": "> 20 µM (inactive)"}]}
{"smiles": "COc1ccc(OC)c(Nc2cc(-c3ccccc3)nc(N)n2)c1", "values": [{"measurement": "EC50", "setting": "[1]", "result": "4.73 µM (active)"}, {"measurement": "IC50", "setting": "[5]", "result": "> 80 µM (inactive)"}]}
{"smiles": "COCCn1c(C)cc(C(=O)CSc2nnc(C)s2)c1C", "values": [{"measurement": "AC50", "setting": "[6]", "result": "3.04 µM (active)"}]}
{"smiles": "COc1ccc(C(=O)Nc2ccc(NC(=O)c3ccco3)c(Cl)c2)cc1OC", "values": [{"measurement": "AC50", "setting": "[7]", "result": "inconclusive"}]}
{"smiles": "Fc1nc(N2CCCC2)c(F)c(Oc2ccccc2Oc2c(F)c(F)nc(N3CCCC3)c2F)c1F", "values": [{"measurement": "AC50", "setting": "[8]", "result": "5.62 µM (inconclusive)"}, {"measurement": "AC50", "setting": "[9]", "result": "1 µM (inconclusive)"}, {"measurement": "AC50", "setting": "[7]", "result": "inconclusive"}]}
{"smiles": "CCCCN=C(S)NNC(=O)c1sccc1C", "values": [{"measurement": "AC50", "setting": "[7]", "result": "inconclusive"}]}
{"smiles": "O=C(NC(=S)NNC(=O)[C@H]1C[C@@H]1c1ccccc1)c1cccc(F)c1", "values": [{"measurement": "EC50", "setting": "[10]", "result": "> 160 µM (inactive)"}, {"measurement": "EC50", "setting": "[11]", "result": "1.89 µM (active)"}, {"measurement": "EC50", "setting": "[12]", "result": "1.91 µM (active)"}, {"measurement": "EC50", "setting": "[13]", "result": "3.91 µM (active)"}, {"measurement": "EC50", "setting": "[14]", "result": "17.6 µM (active)"}, {"measurement": "EC50", "setting": "[15]", "result": "3.65 µM (active)"}, {"measurement": "CC50", "setting": "[16]", "result": "> 40 µM (active)"}, {"measurement": "EC50", "setting": "[17]", "result": "4.22 µM (active)"}, {"measurement": "IC50", "setting": "[18]", "result": "18.8 µM (active)"}]}
{"smiles": "CCCCn1c(NCc2ccc(N(C)C)cc2)nc2ccccc21", "values": [{"measurement": "IC50", "setting": "[19]", "result": "1.26 µM (active)"}, {"measurement": "EC50", "setting": "[1]", "result": "1.5 µM (active)"}]}
{"smiles": "C=C(C)C(=O)Nc1cccc(C2=NOC3(C2)C[C@@H](C(N)=O)N(C(=O)[C@H]2CCC(=O)N2)C3)c1", "note": "(stereo not given in full)", "values": [{"measurement": "IC50", "setting": "[20]", "result": "19.3 µM (active)"}]}
{"smiles": "OC1(c2ccc(F)cc2)CCN(Cc2ccccc2)C1", "note": "(stereo not given)", "values": [{"measurement": "EC50", "setting": "[1]", "result": "2.99 µM (active)"}]}
